Reference: patent publication US20050153306A1, “Fluorogenic enzyme substrates and uses thereof” (IRM LLC, priority 2003, published 2005)

Legend:
Thrombin = target: T1, Thrombin (Homo sapiens, UniProt P00734); experiment: Enzymatic activity monitored using rhodamine protease substrates (fluorescence); type: biochemical; conditions: substrate 250 μM, thrombin 500 pM, 37° C.
T1 construct: purchased Haematologic Technologies (Essex Jct., Vt.)
Method: (§1) The substrates 1 and 3 were used at 250 μM. Thrombin was used at a concentration of 500 pM and caspase-3 was used at a concentration of 10 nM. For thrombin a buffer consisting of 50 mM Tris (pH 7.4),200 mM NaCl, 5 mM CaCI2 and 0.01% (v/v) Tween-20 (THB) was used. The buffer for caspase-3 (CAB) consisted of 20 mM HEPES (pH 7.4), 100 mM NaCi, inM EDTA, 0.1% CHAPS,10% (w/v) sucrose and 10 mM DTT. 50 µl of the buffer containing the substrate at a concentration of 500 JIM were transferred into a well of a black 96-well Microfluor plate (Dynex Technologies, Chantilly, Va.). The reaction was initiated by the addition of 50 μL of the buffer containing the enzyme at a concentration of 1 nM for thrombin or 20 nM for caspase-3. The hydrolysis of rhodamine substrates was measured with a Spectramax Gemini XS spectrofluorimeter (Molecular devices, Sunnyvale, Calif.) thermostated at 37° C. using an excitation wavelength of 490 nm, an emission wavelength of 530 nm and a cutoff wavelength of 515 nm.

caspase-3 = target: T2, caspase-3 (Homo sapiens, UniProt P42574); experiment: as above; type: biochemical; design: made in house; conditions: substrate 250 μM, caspase-3 10 nM, 37° C.
T2 sequence (P42574 29-175 limits assumed): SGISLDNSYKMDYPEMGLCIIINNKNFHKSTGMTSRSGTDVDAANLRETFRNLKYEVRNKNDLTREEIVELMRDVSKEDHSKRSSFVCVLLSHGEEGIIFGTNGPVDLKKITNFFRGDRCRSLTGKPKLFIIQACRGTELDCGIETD
T2 sequence (P42574 176-277 limits assumed): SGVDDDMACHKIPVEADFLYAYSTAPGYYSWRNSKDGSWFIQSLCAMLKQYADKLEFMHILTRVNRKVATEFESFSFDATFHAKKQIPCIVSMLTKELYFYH
Method: as §1

Row | Substance | fluorescence signal (enzymatic hydrolysis of the rhodamine substrate) (Thrombin) | fluorescence signal (enzymatic hydrolysis of the rhodamine substrate) (caspase-3) | fluorescence signal (enzymatic hydrolysis of the rhodamine substrate) (caspase-3; listed as (DEVD)2-rhodamine-Ac) | fluorescence signal (enzymatic hydrolysis of the rhodamine substrate) (Thrombin; listed as (nTPR)2-rhodamine-Ac)
1 | (Ac-DEVD)2-rhodamine-Lys(Ac) [compound 1] | only a slight increase in fluorescence | strong fluorescent signal | linear increase in fluorescence | 
2 | (Ac-nTPR)2-rhodamine-Lys(Ac) [compound 3] | strong fluorescent signal | only a slight increase in fluorescence |  | linear increase in fluorescence
